The values that follow are results of earlier work, collected in patent publication US10316097B2, “Method for the treatment of epilepsy, epileptogenesis, seizures or convulsions by an anti-colony-stimulating factor 1 receptor (CSF-1R) antibody” (UCB BIOPHARMA SPRL, priority 2015, dated 2019).

For series [1], the system named is TNF-α-driven inflammation in the brain. To be noted: systemic administration in rodents.
The conditions of series [2]: systemic administration in rodents.

As to etanercept, the “Effect on TNF-α-driven inflammation in the brain” value in series [1] is recorded as “does not affect”. The “Crossing of the blood-brain barrier (BBB)” value in series [2] is on record as “does not cross the blood-brain barrier”.
